# Measured values: PubChem BioAssay (NCI)
#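 Protocol summary: plate cells (96-well), add compound at 5 concentrations, incubate 48 h, interpolate endpoints linearly. GI50 is the concentration that inhibits growth by half. TGI denotes the concentration required for complete inhibition of growth.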
# What was measured:
# Assay in all cases: growth of human tumour cells (NCI), 48 h
# M14 melanoma = system: M14 melanoma
# IGROV1 ovarian = system: IGROV1 ovarian
# MALME-3M melanoma = system: MALME-3M melanoma
# SN12C renal = system: SN12C renal
# NCI-H23 lung = system: NCI-H23 lung
# K-562 leukemia = system: K-562 leukemia
# UO-31 renal = system: UO-31 renal
# SK-MEL-2 melanoma = system: SK-MEL-2 melanoma
# UACC-62 melanoma = system: UACC-62 melanoma
# MDA-MB-435 = system: MDA-MB-435
# PC-3 prostate = system: PC-3 prostate
# MOLT-4 leukemia = system: MOLT-4 leukemia
# HCT-116 colon = system: HCT-116 colon
# HCC-2998 colon = system: HCC-2998 colon
# T-47D breast = system: T-47D breast
# SK-OV-3 ovarian = system: SK-OV-3 ovarian
# EKVX NSCLC = system: EKVX NSCLC
# SR leukemia = system: SR leukemia
# LOX IMVI melanoma = system: LOX IMVI melanoma
# CCRF-CEM leukemia = system: CCRF-CEM leukemia
# HOP-92 NSCLC = system: HOP-92 NSCLC
# SF-268 CNS = system: SF-268 CNS
# ACHN renal = system: ACHN renal
# HS 578T breast = system: HS 578T breast
# OVCAR-5 ovarian = system: OVCAR-5 ovarian
# MDA-MB-231 breast = system: MDA-MB-231 breast
# HCT-15 colon = system: HCT-15 colon
# COLO 205 colon = system: COLO 205 colon
# NCI-H460 lung = system: NCI-H460 lung
# OVCAR-8 ovarian = system: OVCAR-8 ovarian
# KM12 colon = system: KM12 colon
# MCF7 breast = system: MCF7 breast
# SW-620 colon = system: SW-620 colon
# BT-549 breast = system: BT-549 breast
# DU-145 prostate = system: DU-145 prostate
# SK-MEL-5 melanoma = system: SK-MEL-5 melanoma
# SF-539 CNS = system: SF-539 CNS
# SNB-75 CNS = system: SNB-75 CNS
# SNB-19 CNS = system: SNB-19 CNS
# SK-MEL-28 melanoma = system: SK-MEL-28 melanoma
# CAKI-1 renal = system: CAKI-1 renal
# OVCAR-4 ovarian = system: OVCAR-4 ovarian
# HT29 colon = system: HT29 colon
# RPMI-8226 leukemia = system: RPMI-8226 leukemia
# 786-0 renal = system: 786-0 renal
# A498 renal = system: A498 renal
# TK-10 renal = system: TK-10 renal
# U251 CNS = system: U251 CNS
# UACC-257 melanoma = system: UACC-257 melanoma
# NCI-H522 lung = system: NCI-H522 lung
# NCI-H226 lung = system: NCI-H226 lung
# A549 NSCLC = system: A549 NSCLC
# HL-60(TB) leukemia = system: HL-60(TB) leukemia
# HOP-62 NSCLC = system: HOP-62 NSCLC
# RXF 393 renal = system: RXF 393 renal
# NCI/ADR-RES ovarian = system: NCI/ADR-RES ovarian
# OVCAR-3 ovarian = system: OVCAR-3 ovarian
# SF-295 CNS = system: SF-295 CNS
smiles,measurement,setting,value
CNCCN(C)c1ccc(Nc2cc(NC3CC3)n3ncc(C#N)c3n2)cc1NC(C)=O,GI50,M14 melanoma,< 11.8 nM
same,TGI,M14 melanoma,452 nM
same,GI50,IGROV1 ovarian,< 10.7 nM
same,TGI,IGROV1 ovarian,961 nM
same,GI50,MALME-3M melanoma,16.6 nM
same,TGI,MALME-3M melanoma,3180 nM
same,GI50,SN12C renal,75.2 nM
same,TGI,SN12C renal,> 64200 nM
same,GI50,NCI-H23 lung,< 10 nM
same,TGI,NCI-H23 lung,237 nM
same,GI50,K-562 leukemia,< 13.8 nM
same,TGI,K-562 leukemia,> 40100 nM
same,GI50,UO-31 renal,143 nM
same,TGI,UO-31 renal,3790 nM
same,GI50,SK-MEL-2 melanoma,20.2 nM
same,TGI,SK-MEL-2 melanoma,445 nM
same,GI50,UACC-62 melanoma,19.5 nM
same,TGI,UACC-62 melanoma,149 nM
same,GI50,MDA-MB-435,16.1 nM
same,TGI,MDA-MB-435,> 41100 nM
same,GI50,PC-3 prostate,< 10 nM
same,TGI,PC-3 prostate,13200 nM
same,GI50,MOLT-4 leukemia,18.6 nM
same,GI50,HCT-116 colon,< 10 nM
same,TGI,HCT-116 colon,195 nM
same,GI50,HCC-2998 colon,17.5 nM
same,TGI,HCC-2998 colon,16400 nM
same,GI50,T-47D breast,< 10 nM
same,TGI,T-47D breast,1340 nM
same,GI50,SK-OV-3 ovarian,35.7 nM
same,TGI,SK-OV-3 ovarian,668 nM
same,GI50,EKVX NSCLC,< 13 nM
same,TGI,EKVX NSCLC,4040 nM
same,GI50,SR leukemia,< 10 nM
same,TGI,SR leukemia,5730 nM
same,GI50,LOX IMVI melanoma,20.4 nM
same,TGI,LOX IMVI melanoma,390 nM
same,GI50,CCRF-CEM leukemia,< 10 nM
same,TGI,CCRF-CEM leukemia,6000 nM
same,GI50,HOP-92 NSCLC,< 10 nM
same,TGI,HOP-92 NSCLC,46.6 nM
same,GI50,SF-268 CNS,18.2 nM
same,TGI,SF-268 CNS,16400 nM
same,GI50,ACHN renal,73 nM
same,TGI,ACHN renal,15400 nM
same,GI50,HS 578T breast,< 10 nM
same,TGI,HS 578T breast,117 nM
same,GI50,OVCAR-5 ovarian,< 10 nM
same,TGI,OVCAR-5 ovarian,> 28500 nM
same,GI50,MDA-MB-231 breast,< 10 nM
same,TGI,MDA-MB-231 breast,2170 nM
same,GI50,HCT-15 colon,290 nM
same,TGI,HCT-15 colon,> 100000 nM
same,GI50,COLO 205 colon,< 10 nM
same,TGI,COLO 205 colon,2330 nM
same,GI50,NCI-H460 lung,< 10 nM
same,TGI,NCI-H460 lung,12400 nM
same,GI50,OVCAR-8 ovarian,59.2 nM
same,TGI,OVCAR-8 ovarian,> 100000 nM
same,GI50,KM12 colon,25.9 nM
same,TGI,KM12 colon,> 80100 nM
same,GI50,MCF7 breast,< 10 nM
same,TGI,MCF7 breast,1590 nM
same,GI50,SW-620 colon,< 10 nM
same,TGI,SW-620 colon,209 nM
same,GI50,BT-549 breast,< 14 nM
same,TGI,BT-549 breast,165 nM
same,GI50,DU-145 prostate,45.2 nM
same,TGI,DU-145 prostate,> 100000 nM
same,GI50,SK-MEL-5 melanoma,< 10 nM
same,TGI,SK-MEL-5 melanoma,462 nM
same,GI50,SF-539 CNS,14 nM
same,TGI,SF-539 CNS,2360 nM
same,GI50,SNB-75 CNS,< 10 nM
same,TGI,SNB-75 CNS,51.9 nM
same,GI50,SNB-19 CNS,< 10 nM
same,TGI,SNB-19 CNS,> 100000 nM
same,GI50,SK-MEL-28 melanoma,39.3 nM
same,TGI,SK-MEL-28 melanoma,18600 nM
same,GI50,CAKI-1 renal,12.3 nM
same,TGI,CAKI-1 renal,153 nM
same,GI50,OVCAR-4 ovarian,< 10 nM
same,TGI,OVCAR-4 ovarian,> 39200 nM
same,GI50,HT29 colon,< 10 nM
same,TGI,HT29 colon,> 100000 nM
same,GI50,RPMI-8226 leukemia,< 10 nM
same,TGI,RPMI-8226 leukemia,2640 nM
same,GI50,786-0 renal,43.6 nM
same,TGI,786-0 renal,13500 nM
same,GI50,A498 renal,< 11.7 nM
same,TGI,A498 renal,< 26 nM
same,GI50,TK-10 renal,< 10 nM
same,TGI,TK-10 renal,45.3 nM
same,GI50,U251 CNS,< 10 nM
same,TGI,U251 CNS,> 100000 nM
same,GI50,UACC-257 melanoma,16.3 nM
same,TGI,UACC-257 melanoma,10700 nM
same,GI50,NCI-H522 lung,< 10 nM
same,TGI,NCI-H522 lung,1130 nM
same,GI50,NCI-H226 lung,< 10 nM
same,TGI,NCI-H226 lung,1230 nM
same,GI50,A549 NSCLC,18.8 nM
same,TGI,A549 NSCLC,12500 nM
same,GI50,HL-60(TB) leukemia,< 10 nM
same,TGI,HL-60(TB) leukemia,498 nM
same,GI50,HOP-62 NSCLC,27.5 nM
same,TGI,HOP-62 NSCLC,> 54400 nM
same,GI50,RXF 393 renal,10 nM
same,TGI,RXF 393 renal,34.2 nM
same,GI50,NCI/ADR-RES ovarian,3360 nM
same,TGI,NCI/ADR-RES ovarian,> 100000 nM
same,GI50,OVCAR-3 ovarian,< 10 nM
same,TGI,OVCAR-3 ovarian,869 nM
same,GI50,SF-295 CNS,27.7 nM
same,TGI,SF-295 CNS,12500 nM
